Where two headings read alike, the source gives them in different places.
Experiment: Clinical study of the effect of food and antacid on pharmacokinetics after a single oral 40 mg tablet in healthy subjects
Format: in vivo, human
Conditions: for Tmax / Cmax / half-life / AUC: single 40 mg oral tablet; for Tmax: median; for Cmax / half-life / AUC: po, 40 mg, mean
Description: and or the bisulfate salt thereof in healthy subjects was studied in a clinical trial. The primary objective of the study was to evaluate the effect of food (standardized high-fat breakfast) and antacid (increased gastric pH) on the pharmacokinetics (PK) of
and or the bisulfate salt thereof administered orally as a 40 mg tablet. A secondary objective was to evaluate the effect of meal timing relative to fasting on the PK of
The study was designed as a randomized, open-label, single-dose, parallel-group, single-center study conducted in healthy young adults in conformance with Good Clinical Practice. Healthy male and female subjects between the ages of 18 and 45 years with a body mass index of 19-32 kg/m^2 were eligible for enrollment. Eligible subjects were randomly assigned to receive a single 40 mg dose of
basis on Days 7, 14, 21, 28, 35, and 42 (±1 day) after dosing. The bioanalytical assay was an LC-MS/MS assay, LLOQ=1.00 ng/mL.

[1] = 40 mg tablet immediately with food vs fasted
[2] = 1 hr after food vs fasted, 40 mg tablet
[3] = 2 hr after food vs fasted, 40 mg tablet
[4] = Fed (immediately with food) vs fasted, 40 mg tablet
[5] = antacid co-administration vs alone, fasted subjects
[6] = fasted subjects, with antacid vs alone, 40 mg tablet

CCOC(=O)N[C@@H]1CC[C@@H]2[C@@H](C1)C[C@H]1C(=O)O[C@H](C)[C@H]1[C@H]2/C=C/c1ccc(-c2cccc(F)c2)cn1 [SCH 530348, ethyl [(R1R,3aR,4aR,6R,8aR,9S,9aS)-9-[(E)-2-[5-(3-fluorophenyl)-2-pyridinyl]ethenyl]-dodecahydro-1-methyl-3-oxonaphtho[2,3-c]furan-6-yl] carbamate]
increase of peak plasma concentration (Cmax) [1]: 31% | increase of systemic exposure (AUC[l]) [1]: 43% | Tmax (1 hour after food): 0.083 days | Ratio Estimate Fed vs Fasted, AUC(I) (relative bioavailability) [2]: 143 | Ratio Estimate Fed vs Fasted, Cmax (relative bioavailability) [2]: 117 | Tmax (2 hours after food): 0.083 days | Ratio Estimate Fed vs Fasted, AUC(I) (relative bioavailability) [3]: 127 | Ratio Estimate Fed vs Fasted, Cmax (relative bioavailability) [3]: 137 | Tmax (Fasted with antacid): 0.083 days | Ratio Estimate Fed vs Fasted, AUC(I) (relative bioavailability) [4]: 143 | Ratio Estimate Fed vs Fasted, Cmax (relative bioavailability) [4]: 131 | reduction of peak plasma concentration (Cmax) [5]: 38% | reduction of systemic exposure (AUC[l]) [5]: 15% | Cmax (both sexes, human, plasma, 1 hour after food (high-fat breakfast)): 298 ng/mL | half-life (both sexes, human, plasma, 1 hour after food, n = 9): 12 days | AUC (both sexes, human, plasma, 1 hour after food, n = 9, read-out: AUC(I)): 26800 ng·h/mL | AUC (both sexes, human, plasma, 1 hour after food, read-out: AUC(tf)): 23200 ng·h/mL | Cmax (both sexes, human, plasma, 2 hours after food (high-fat breakfast)): 355 ng/mL | half-life (both sexes, human, plasma, 2 hours after food, n = 9): 10.1 days | AUC (both sexes, human, plasma, 2 hours after food, n = 9, read-out: AUC(I)): 23400 ng·h/mL | AUC (both sexes, human, plasma, 2 hours after food, read-out: AUC(tf)): 22400 ng·h/mL | Cmax (both sexes, human, plasma, Fasted with antacid (20 mL Gaviscon extra-strength liquid)): 165 ng/mL | half-life (both sexes, human, plasma, Fasted with antacid, n = 18): 10.2 days | AUC (both sexes, human, plasma, Fasted with antacid, n = 18, read-out: AUC(I)): 15800 ng·h/mL | AUC (both sexes, human, plasma, Fasted with antacid, read-out: AUC(tf)): 15000 ng·h/mL | Cmax (both sexes, human, plasma, Fasted without antacid (after 10-hour fast), healthy subjects): 262 ng/mL | half-life (both sexes, human, plasma, Fasted without antacid, healthy subjects, n = 19): 10 days | AUC (both sexes, human, plasma, Fasted without antacid, healthy subjects, n = 19, read-out: AUC(I)): 18400 ng·h/mL | AUC (both sexes, human, plasma, Fasted without antacid, healthy subjects, read-out: AUC(tf)): 16800 ng·h/mL | half-life (both sexes, human, plasma, Fed (immediately with food), n = 18): 10.9 days | AUC (both sexes, human, plasma, Fed (immediately with food), n = 18, read-out: AUC(I)): 26600 ng·h/mL | AUC (both sexes, human, plasma, Fed (immediately with food), read-out: AUC(tf)): 22800 ng·h/mL | Cmax (both sexes, human, plasma, Fed (within 5 minutes of completing standardized high-fat breakfast)): 347 ng/mL | Tmax (both sexes, human, plasma, Fed (immediately with food), read-out: Tmax): 0.125 days | Ratio Estimate with vs without Antacid, AUC(I) (relative bioavailability) [6]: 85 | Ratio Estimate with vs without Antacid, Cmax (relative bioavailability) [6]: 62
